Values of other authors in patent publication US20070020249A1, “COMPOSITIONS FOR PREVENTION AND TREATEMENT OF SYMPTOMS OF GASTROINTESTINAL DISTRESS” (priority 2005, published 2007).

Settings: humans; Auburn University study

Substance: oxygen-coordinated chromium polynicotinate
- reduction of LDL cholesterol, average: 14%
